Here are results for one molecule from PMC8221234 (Chemical biology & drug design, 2009).

Structures are written as SMILES.

Test [1] deals with eIF2α phosphorylation in NIH3T3 cells. In words: UV-induced eIF2α phosphorylation in NIH3T3 cells. The following applies: compared with MEFs, data not shown. The format is cell-based.
The test system is the same in test [2]. As to conditions: cited from earlier work.

For `Oc1c2ccccc2c2c3c(cccc13)N=N2` [SP600125], in test [1], the “Effect on UV-induced eIF2α phosphorylation in NIH3T3 cells (qualitative)” value is recorded as “does not prevent eIF2α phosphorylation”. Also, the “Effect on eIF2α phosphorylation following UV irradiation (qualitative)” value in test [2] is “did not prevent the phosphorylation of eIF2α”.
